In patent publication US4180677A, “Novel prostaglandins” (American Cyanamid Company, priority 1977, dated 1979):

Assays:
[1] = tested on: bronchospasms elicited by acetylcholine; experiment: Bronchodilator activity (Konzett assay), spasmogen acetylcholine; type: in vivo, guinea pig; details: Cavia porcellus; guinea pigs, spasmogen acetylcholine i.v.; three logarithmic cumulative intravenous doses
Experimental: (§1) Bronchodilator activity was determined in guinea pigs against bronchospasms elicited by intravenous injections of 5-hydroxytryptamine, histamine or acetylcholine by the Konzett procedure. [See J. Lulling, P. Lievens, F. El Sayed and J. Prignot, Arzneimittel-Forschung, 18, 995 (1968).]
(§2) In the Table which follows bronchodilator activity for representative compounds of this invention against one or more of three spasmogenic agents is expressed as an ED50 determined from the results obtained with three logarithemic cumulative intravenous doses.

[2] = tested on: bronchospasms elicited by histamine; experiment: Bronchodilator activity (Konzett assay), spasmogen histamine; type: in vivo, guinea pig; details: Cavia porcellus; guinea pigs, spasmogen histamine i.v.; three logarithmic cumulative intravenous doses
Experimental: as §1, §2

[3] = tested on: bronchospasms elicited by 5-hydroxytryptamine; experiment: Bronchodilator activity (Konzett assay), spasmogen 5-hydroxytryptamine; type: in vivo, guinea pig; details: Cavia porcellus; guinea pigs, spasmogen 5-hydroxytryptamine i.v.; three logarithmic cumulative intravenous doses
Experimental: as §1, §2

[4] = tested on: ulcerogenic properties of indomethacin; experiment: Protection against indomethacin-induced ulcers (oral gavage); type: in vivo, rat; details: rats, indomethacin 20 mg./kg. s.c., score 0 normal to 4 many ulcers
Experimental: The compounds of this invention provide protection against the ulcerogenic properties of indomethacin. This assay was carried out in the following manner.
Rats were starved for 48 hours (water was given ad libitum). Indomethacin (20 mg./kg. of body weight) was administered by the subcutaneous route and one-half the dose of the test compound was administered by gavage at the same time. After three hours, the second half of the test compound was administered also be gavage. Five hours after the administration of indomethacin the animals were decapitated and the stomachs removed. The stomachs were washed with distilled water, blotted on gauze, cut along the larger curvature, and the contents rinsed with distilled water. The stomachs were spread out, pinned on a cork and visualized under magnifying glass for ulcers. The criteria for scoring of ulcers was as previously reported. [Abdel-Galil et al. Brit. J. Pharmac. Chemotherapy 33:1-14 (1968)].
1-Petechial hemorrhage or pin point ulder
3 Many ulcers, a few large
4-Many ulcers, mainly large
Control animals treated with indomethacin but not test compound consistenly give scores of about 3.0. Control animals treated with neither indomethacin nor test compound gives scores of about 0.5-0.8. Compounds producing a lowering of the control score by 0.5 or more are considered to be active.

| Structure (SMILES) | ED50 [1] | ED50 [2] | ED50 [3] | Score, treated (ulcer score) ([4]; total oral dose 12.5 mg./kg. of body weight, control score 2.8) | Score, treated (ulcer score) ([4]; total oral dose 25.0 mg./kg. of body weight, control score 3.0) |
| --- | --- | --- | --- | --- | --- |
| O=C(O)CCCCCC[C@H]1C(=O)CC[C@@H]1/C=C/[C@@H](O)CC1CCCC1 (relative stereo) [9-oxo-15-hydroxy-17,20-methano-13-trans-prostenoic acid] | 3.2 mg/kg | 0.0014 mg/kg | 0.0063 mg/kg | 1.8 |  |
| O=C(O)CCCCCC[C@H]1C(=O)CC[C@@H]1/C=C/[C@H](O)CC1CCCC1 (relative stereo) [9-oxo-15-epi-hydroxy-17,20-methano-13-trans-prostenoic acid] | 3.2 mg/kg | 0.206 mg/kg | 3.2 mg/kg |  | 1.7 |
